Literature values in patent US20110264374A1, “Method, Computer Program Product and System for Individual Assessment of Alcohol Sensitivity” (UNIVERSITY OF VIRGINIA PATENT FOUNDATION, priority 2007, published 2011).

What was measured:
[1] = blood ethanol, oral ingestion; adopted from the literature [16, 24, 25]

- AUC (area under the curve) [1]: 230 µg·h/mL
- Cmax [1]: 161.4 µg/mL
- tmax [1]: 47 min
- time to peak amount of alcohol in the blood (after consumption of one standard drink): 30 to 45 min
- remainder not metabolized, excreted in sweat, urine and breath (in vivo): 10%
- share of alcohol entering the body completely metabolized in the liver (in vivo): More than 90%
- share of consumed alcohol absorbed from the small intestine (oral consumption): approx. 80%
- share of consumed alcohol absorbed from the stomach (oral consumption): approx. 20%
Compound: CCO [ethanol, Ethyl Alcohol]
